Drawing on patent US7268150B2, “2-cyano-4-fluoropyrrolidine derivative or its salt” (Yamanouchi Pharmaceutical Co., Ltd., priority 2002, dated 2007), this text covers inhibition and IC50 for 10 compounds.

Read-outs that look alike come from different tables or passages of the source.

As a reminder, the IC50 is the concentration needed to halve the response being measured.

Test [1] deals with T1, plasma DPP-IV (Mus musculus, UniProt P28843).
T1 construct: The collected blood was immediately centrifuged to isolate the plasma; from tissue; host or cells: plasma of male ICR mice (Nippon SLC)
T1 sequence (P28843 37-760 limits assumed): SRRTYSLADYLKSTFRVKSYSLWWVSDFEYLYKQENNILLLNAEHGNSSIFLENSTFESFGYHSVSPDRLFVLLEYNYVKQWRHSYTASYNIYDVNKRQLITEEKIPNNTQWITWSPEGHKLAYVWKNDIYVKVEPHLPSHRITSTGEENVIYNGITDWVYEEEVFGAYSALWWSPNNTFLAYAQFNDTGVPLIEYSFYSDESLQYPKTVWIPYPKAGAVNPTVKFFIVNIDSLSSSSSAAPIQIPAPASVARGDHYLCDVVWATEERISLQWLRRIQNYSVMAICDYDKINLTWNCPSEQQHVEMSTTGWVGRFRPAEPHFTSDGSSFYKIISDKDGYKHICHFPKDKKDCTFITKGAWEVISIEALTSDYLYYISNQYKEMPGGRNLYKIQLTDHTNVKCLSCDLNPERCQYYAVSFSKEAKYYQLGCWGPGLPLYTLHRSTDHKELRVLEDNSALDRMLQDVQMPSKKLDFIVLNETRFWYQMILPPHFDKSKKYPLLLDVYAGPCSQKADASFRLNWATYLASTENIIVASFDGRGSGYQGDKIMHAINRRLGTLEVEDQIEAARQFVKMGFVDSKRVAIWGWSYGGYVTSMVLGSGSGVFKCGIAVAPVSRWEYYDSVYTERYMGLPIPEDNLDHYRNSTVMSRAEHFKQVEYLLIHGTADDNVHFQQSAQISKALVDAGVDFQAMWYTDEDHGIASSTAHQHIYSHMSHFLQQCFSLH
Briefly: Test for DPP-IV inhibiting activity duration in mice. The class given is in vivo. To be noted: po. On the procedure: (2) Test for DPP-IV Inhibiting Activity Duration in Mice:
(§1) Male ICR mice (Nippon SLC) were grouped into a test group and a control group of 5 subjects each. A test compound (10 mg/kg) was dissolved in purified water, and orally administered. Purified water alone was orally administered to the mice of the control group. One half, 6, and 12 hours after the administration, the blood was collected from each mouse through the orbital venous plexus thereof. The collected blood was immediately centrifuged to isolate the plasma, and the DPP-IV activity of the plasma was measured.
(§2) The process of plasma DPP-IV activity determination was as follows: The reaction was performed in a 96-well plate. 5 μl of the collected plasma was added to an aqueous solution (95 μl/well) comprises 25 mM Tris-HCl, 140 mM sodium chloride, 10 mM potassium chloride, 1% bovine serum albumin, and 0.01 mM Gly-Pro-AMC (Bachem), and incubated at room temperature for 20 minutes.
The fluorescent intensity of the well, to which was added the plasma collected from the control group, was 100%. Based on it, the DPP-IV activity of the plasma collected from the test compound-administered mice was calculated, and the activity difference between the control group and the test group was obtained. This indicated the inhibition in the test group.

The target in test [2] is T2, DPP-IV (Homo sapiens, UniProt P27487).
T2 construct: added was 5 μL of plasma collected from healthy adult volunteers; from tissue; host or cells: plasma of healthy adult volunteers
T2 sequence (P27487 39-766 limits assumed): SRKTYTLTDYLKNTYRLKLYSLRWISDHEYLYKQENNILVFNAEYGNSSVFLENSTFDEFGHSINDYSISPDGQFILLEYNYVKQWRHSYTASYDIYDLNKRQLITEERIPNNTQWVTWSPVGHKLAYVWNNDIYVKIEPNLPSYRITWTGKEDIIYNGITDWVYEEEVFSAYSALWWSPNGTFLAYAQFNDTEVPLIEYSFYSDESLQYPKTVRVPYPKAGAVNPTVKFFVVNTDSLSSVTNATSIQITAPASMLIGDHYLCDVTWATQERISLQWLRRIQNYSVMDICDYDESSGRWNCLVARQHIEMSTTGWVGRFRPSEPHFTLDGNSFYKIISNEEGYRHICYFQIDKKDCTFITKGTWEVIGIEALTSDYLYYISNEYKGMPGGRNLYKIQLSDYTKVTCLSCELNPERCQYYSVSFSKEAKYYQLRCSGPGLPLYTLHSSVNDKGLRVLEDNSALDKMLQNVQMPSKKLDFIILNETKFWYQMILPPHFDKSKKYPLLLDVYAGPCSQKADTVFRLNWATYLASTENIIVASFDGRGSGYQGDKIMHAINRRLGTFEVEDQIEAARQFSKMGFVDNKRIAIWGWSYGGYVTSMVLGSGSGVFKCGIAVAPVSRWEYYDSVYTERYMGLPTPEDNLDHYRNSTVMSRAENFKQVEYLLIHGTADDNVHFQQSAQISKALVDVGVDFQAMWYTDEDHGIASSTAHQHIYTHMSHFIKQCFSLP
Briefly: Test for determination of DPP-IV inhibiting activity (Gly-Pro-AMC cleavage by human plasma). The class given is biochemical. How it is done: (1) Test for Determination of DPP-IV Inhibiting Activity:
The reaction was performed in a 96-well flat-bottom microtiter plate. A varying concentration of the test compound was added to an aqueous solution comprised of 25 mM Tris-HCl, 140 mM sodium chloride, 10 mM potassium chloride, 1% RIA-grade bovine serum albumin, and 0.01 mM Gly-Pro-AMC (Bachem). To this reaction solution (95 μL/well), added was 5 μL of plasma collected from healthy adult volunteers, and incubated at room temperature for 20 minutes. […] The data of 3 wells under the same conditions were averaged.
The inhibition in the test group, relative to the solvent-added group was calculated, and the IC50 value thereof was obtained through logistic analysis.

Test [3] has as its target T3, plasma DPP-IV (Rattus norvegicus, UniProt P14740).
T3 construct: The collected blood was immediately centrifuged to isolate the plasma; from tissue; host or cells: plasma of male SD rats (Clea Japan)
Briefly: Test for DPP-IV inhibiting activity duration in rats. The class given is in vivo. The settings on record: po. How it is done: as §2
(3) Test for DPP-IV Inhibiting Activity Duration in Rats:
as §1, with “SD rats (Clea Japan)” for “ICR mice (Nippon SLC)”, “rats” for “mice”, “rat” for “mouse”, “tail vein” for “orbital venous plexus”, “measured according to the same process as in the dipeptidyl peptidase-IV (DPP-IV) inhibiting activity duration test shown in (2).” for “measured.”
The fluorescent intensity of the well, to which was added the plasma collected from the control group, was 100%. Based on it, the DPP-IV activity of the plasma collected from the test compound-administered rats was calculated, and the activity difference between the control group and the test group was obtained. This indicated the inhibition in the test group.

The mark [4] stands for this setting: male ICR mice, 10 mg/kg orally, 12 h after administration, relative to control group, read-out: inhibition of plasma DPP-IV activity after 12 h.
[5] abbreviates: read-out: inhibition of plasma DPP-IV activity after 6 h, male ICR mice, 10 mg/kg orally, 6 h after administration, relative to control group.
The mark [6] stands for this setting: plasma from healthy adult volunteers, 0.01 mM Gly-Pro-AMC, room temperature, 20 minutes, read-out: IC50 (DPP-IV inhibiting activity).
Where [7] appears, read: male SD rats, 10 mg/kg orally, 12 h after administration, relative to control group, read-out: inhibition of plasma DPP-IV activity after 12 h.
[8] abbreviates: read-out: inhibition of plasma DPP-IV activity after 6 h, male SD rats, 10 mg/kg orally, 6 h after administration, relative to control group.
The mark [9] stands for this setting: read-out: inhibition of plasma DPP-IV activity after 6 h.
Where [10] appears, read: read-out: inhibition of plasma DPP-IV activity after 12 h.

T3 sequence (P14740 37-767 limits assumed): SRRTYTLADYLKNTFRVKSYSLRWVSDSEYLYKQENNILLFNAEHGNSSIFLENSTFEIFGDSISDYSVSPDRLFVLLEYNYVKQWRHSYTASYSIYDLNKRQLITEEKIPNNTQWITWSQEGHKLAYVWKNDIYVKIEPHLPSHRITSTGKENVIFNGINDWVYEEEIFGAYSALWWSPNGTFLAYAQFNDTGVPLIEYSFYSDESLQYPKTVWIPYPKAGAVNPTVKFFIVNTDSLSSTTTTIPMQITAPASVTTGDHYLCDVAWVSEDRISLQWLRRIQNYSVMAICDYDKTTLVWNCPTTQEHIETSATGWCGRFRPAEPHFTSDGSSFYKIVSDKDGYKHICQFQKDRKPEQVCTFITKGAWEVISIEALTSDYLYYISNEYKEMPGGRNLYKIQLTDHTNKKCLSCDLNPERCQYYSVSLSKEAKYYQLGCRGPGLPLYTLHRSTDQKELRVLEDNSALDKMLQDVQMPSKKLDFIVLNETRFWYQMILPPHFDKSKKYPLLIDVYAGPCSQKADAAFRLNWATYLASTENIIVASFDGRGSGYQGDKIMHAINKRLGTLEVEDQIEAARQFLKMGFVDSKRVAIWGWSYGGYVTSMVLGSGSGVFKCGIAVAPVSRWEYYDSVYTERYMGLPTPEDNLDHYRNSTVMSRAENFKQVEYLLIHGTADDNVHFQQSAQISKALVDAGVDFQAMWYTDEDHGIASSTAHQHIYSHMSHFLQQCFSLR

As for `CS(=O)(=O)N1CCC(NCC(=O)N2C[C@@H](F)C[C@H]2C#N)CC1` [Example 1, (2S,4S)-4-fluoro-1-({[1-(methanesulfonyl)piperidin-4-yl]amino}acetyl)pyrrolidine-2-carbonitrile monofumarate], the inhibition at 10 mg/kg was 59% in test [1] (setting [4]) and 74% in test [1] (setting [5]). Moreover, the IC50 in test [2] (setting [6]) was found to be 4.2 nM.

As to `N#C[C@@H]1C[C@H](F)CN1C(=O)CNC1CCN(C=O)CC1` [Example 19], the results for the inhibition at 10 mg/kg in test [1] (setting [4]) and in test [1] (setting [5]) were 61% and 72%, respectively. In addition, the IC50 in test [2] (setting [6]) stood at 4.2 nM.

Turning to `N#C[C@@H]1C[C@H](F)CN1C(=O)CNC1CCN(C(=O)CO)CC1` [Example 21], the inhibition at 10 mg/kg in test [1] (setting [4]) turned out to be 71%; in test [1] (setting [5]), 78%. For the same compound, in test [2] (setting [6]), the IC50 stood at 6 nM.

As for `N#C[C@@H]1C[C@H](F)CN1C(=O)CNC1CCN(C(=O)N2CCOCC2)CC1` [Example 28], the IC50 in test [2] (setting [6]) was 5.1 nM.

Take `CC1(NCC(=O)N2C[C@@H](F)C[C@H]2C#N)CCN(C(=O)CO)CC1` [Example 34]: the inhibition at 10 mg/kg in test [1] (setting [4]) is 79%; in test [1] (setting [5]), 85%; in test [3] (setting [7]), 94%; in test [3] (setting [8]), 96%. Moreover, in test [2] (setting [6]), the IC50 amounted to 8.2 nM.

As to `CC1(NCC(=O)N2C[C@@H](F)C[C@H]2C#N)CCN(C=O)CC1` [Example 36], the inhibition at 10 mg/kg in test [1] (setting [4]) was determined as 78%; in test [1] (setting [5]) it was 81%; in test [3] (setting [7]), 86%; in test [3] (setting [8]), 92%. Also, the 50% inhibitory concentration (IC50) in test [2] (setting [6]) turned out to be 7.5 nM.

Regarding `CC1(NCC(=O)N2C[C@@H](F)C[C@H]2C#N)CCN(C(=O)CF)CC1` [Example 41], the inhibition at 10 mg/kg in test [1] (setting [9]) is 83%; in test [1] (setting [10]), 78%; in test [3] (setting [9]) it was 93%; in test [3] (setting [10]), 89%. Further, the IC50 in test [2] is 5.9 nM.

Take `CS(=O)(=O)N1CCC(NCC(=O)N2CCC[C@H]2C#N)CC1` [compound 1, reference compound]: the inhibition at 10 mg/kg in test [3] (setting [7]) turned out to be 38%; in test [3] (setting [8]), 65%.

As to `COCC(=O)N1CCC(NCC(=O)N2CCC[C@H]2C#N)CC1` [compound 2, reference compound], the figures for the inhibition at 10 mg/kg in test [3] (setting [7]) and in test [3] (setting [8]) were 55% and 77%, respectively.

For `COC(C)S(=O)(=O)N1CCC(C)(NCC(=O)N2C[C@@H](F)C[C@H]2C#N)CC1` (stereo partly shown) [compound 3, reference compound], the figures for the inhibition at 10 mg/kg in test [3] (setting [7]) and in test [3] (setting [8]) were 45% and 80%, respectively.
